Converted amounts (≈) assume the structure as drawn. Peptide text beside a SMILES is read from it.
Assays:
Assay type in all cases: functional
[1] = test system: Candida tropicalis; test: Antifungal activity against Candida tropicalis after 24 hrs to 1 week by two fold dilution method
[2] = test system: Cryptococcus neoformans; test: Antifungal activity against Cryptococcus neoformans BLS108 after 24 hrs to 1 week by two fold dilution method
[3] = test system: Candida parapsilosis; test: Antifungal activity against Candida parapsilosis after 24 hrs to 1 week by two fold dilution method; settings: Lodderomyces parapsilosis
[4] = test system: Candida albicans; test: Antifungal activity against Candida albicans Y0109 after 24 hrs to 1 week by two fold dilution method
[5] = test system: Candida albicans; test: Antifungal activity against Candida albicans SC5314 after 24 hrs to 1 week by two fold dilution method

CC[C@H](C)[C@@H]1NC(=O)[C@H](CC(N)=O)NC(=O)[C@H](C(C)C)NC(=O)CNC(=O)[C@H](Cc2c[nH]cn2)NC(=O)[C@H](Cc2c[nH]c3ccccc23)NC(=O)[C@@H]2CCCN2C(=O)[C@@H]2CCCN2C1=O [TUNICYCLIN D] (cyclo(GVNIPPWH))
MIC80 [1]: 0.25 µg/mL (≈ 0.277 µM)
MIC80 [2]: 1 µg/mL (≈ 1.11 µM)
MIC80 [3]: 1 µg/mL (≈ 1.11 µM)
MIC80 [4]: 16 µg/mL (≈ 17.8 µM)
MIC80 [5]: 4 µg/mL (≈ 4.44 µM)

— ChEMBL document CHEMBL1649348, “Antifungal cyclic peptides from Psammosilene tunicoides” (2010)
